pKi: −log10 of the molar value.
Legend:
SYK = SYK (Homo sapiens, UniProt P43405); experiment: SYK enzyme assay, coupled enzyme assay; format: biochemical; details: 200 μM ATP, 4 μM poly Gly-Tyr peptide, 30° C.
Protocol: Compounds were screened for their ability to inhibit SYK using a standard coupled enzyme assay (Fox et al., Protein Sci. 1998, 7, 2249). Reactions were carried out in 100 mM HEPES (pH 7.5), 10 mM MgCl2, 25 mM NaCl, 1 mM DTT and 1.5% DMSO. Final substrate concentrations in the assay were 200 μM ATP (Sigma chemical Co.) and 4 μM poly Gly-Tyr peptide (Sigma Chemical Co.). Assays were carried out at 30° C. and 200 nM SYK. Final concentrations of the components of the coupled enzyme system were 2.5 mM phosphoenolpyruvate, 300 μM NADH, 30 μg/ml pyruvate kinase and 10 μg/ml lactate dehydrogenase.
An assay stock buffer solution was prepared containing all of the reagents listed above, with the exception of SYK, DTT, and the test compound of interest of the present invention. 56 μl of the test reaction was placed in a 96 well plate followed by the addition of 1 μl of 2 mM DMSO stock containing the test compound of the present invnetion (final compound concentration 30 μM). The plate was pre-incubated for ˜10 minutes at 30° C. and the reaction initiated by the addition of 10 μl of enzyme (final concentration 25 nM). Rates of reaction were obtained using a BioRad Ultramark plate reader (Hercules, Calif.) over a 5 minute read time at 30° C., and Ki values for the compounds of the present invention were determined according to standard methods.

FLT-3 = target: T1, FLT-3 (Homo sapiens, UniProt P36888); experiment: Inhibition of FLT-3, radiometric filter-binding assay; format: biochemical; details: 90 μM ATP, 0.5 mg/mL pE4Y, room temperature
T1 construct: 0.02% BSA and 3 nM FLT-3
T1 sequence (P36888 27-993): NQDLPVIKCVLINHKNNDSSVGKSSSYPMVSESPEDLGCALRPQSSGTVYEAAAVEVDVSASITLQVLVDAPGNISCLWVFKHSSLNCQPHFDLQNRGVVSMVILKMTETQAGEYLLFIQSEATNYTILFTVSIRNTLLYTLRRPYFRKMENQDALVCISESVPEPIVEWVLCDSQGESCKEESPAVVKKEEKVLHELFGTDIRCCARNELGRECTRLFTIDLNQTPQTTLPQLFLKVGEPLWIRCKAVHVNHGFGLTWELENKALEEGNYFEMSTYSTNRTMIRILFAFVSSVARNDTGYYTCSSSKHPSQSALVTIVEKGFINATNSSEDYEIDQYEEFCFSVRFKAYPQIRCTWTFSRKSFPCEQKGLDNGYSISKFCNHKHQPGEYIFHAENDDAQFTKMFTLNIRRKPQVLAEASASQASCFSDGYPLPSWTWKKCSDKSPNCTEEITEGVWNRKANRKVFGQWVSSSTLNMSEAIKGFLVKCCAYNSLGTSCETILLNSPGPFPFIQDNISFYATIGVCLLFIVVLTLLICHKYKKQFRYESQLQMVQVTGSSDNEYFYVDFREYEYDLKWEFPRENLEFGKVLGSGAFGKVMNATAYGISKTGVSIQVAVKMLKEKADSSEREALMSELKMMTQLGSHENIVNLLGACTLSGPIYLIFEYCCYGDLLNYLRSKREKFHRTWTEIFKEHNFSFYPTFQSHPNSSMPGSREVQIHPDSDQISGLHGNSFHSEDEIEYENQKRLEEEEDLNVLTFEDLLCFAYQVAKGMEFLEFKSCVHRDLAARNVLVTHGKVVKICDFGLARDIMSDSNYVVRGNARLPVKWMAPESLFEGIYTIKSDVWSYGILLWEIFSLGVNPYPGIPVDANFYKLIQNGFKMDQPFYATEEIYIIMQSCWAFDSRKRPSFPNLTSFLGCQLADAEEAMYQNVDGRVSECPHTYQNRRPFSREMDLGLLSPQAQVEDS
How it was run: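 Radiometric filter-binding assay of FLT-3 (3 nM in Solution 2; final conc not stated) phosphorylating poly(Glu,Tyr) 4:1 (0.5 mg/mL) with 90 μM ATP plus [γ-33P]ATP, in HEPES pH 7.5, MgCl2, NaCl, DTT, BSA, 2.5% DMSO. 12-point titration, typically 0.01–5 μM, 20 min at room temperature; TCA-stopped, filtered, scintillation-counted; IC50 or Ki fitted.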

| pKi (SYK) | pKi (FLT-3) | SMILES |
| --- | --- | --- |
| 6.00 to 6.70 | > 6.70 | Nc1cccc(-c2cnc3[nH]cc(-c4oncc4-c4cccc(F)c4F)c3c2)c1 [Compound 86, 3-{3-[4-(2,3-Difluoro-phenyl)-isoxazol-5-yl]-1H-pyrrolo [2,3-b]pyridin-5-yl}-phenylamine] |
| 4.90 to 6.00 | 6.00 to 6.70 | Fc1cccc(-c2cnoc2-c2c[nH]c3ncc(-c4ccccn4)cc23)c1F [Compound 73, 3-(4-(2,3-Difluoro-phenyl)-isoxazol-5-yl)-5-pyridin-2-yl-1H-pyrrolo[2,3-b]pyridine] |
| 6.00 to 6.70 | > 6.70 | CN1CCN(c2ccc(-c3cnc4[nH]cc(-c5oncc5-c5cccc(F)c5F)c4c3)cc2)CC1 [Compound 70, 3-[4-(2,3-Difluoro-phenyl)-isoxazol-5-yl]-5-[4-(4-methyl-piperazin-1-yl)-phenyl]-1H-pyrrolo[2,3-b]pyridine methanesulfonate] |
| 4.90 to 6.00 | > 6.70 | Fc1cccc(-c2cnoc2-c2c[nH]c3ncc(-c4c[nH]cn4)cc23)c1F [Compound 76, 3-[4-(2,3-Difluoro-phenyl)-isoxazol-5-yl]-5-(3H-imidazol-4-yl)-1H-pyrrolo[2,3-b]pyridine] |
| 6.00 to 6.70 | > 6.70 | Nc1ccc(-c2cnc3[nH]cc(-c4oncc4-c4cccc(F)c4F)c3c2)cc1 [Compound 90, 4-{3-[4-(2,3-Difluoro-phenyl)-isoxazol-5-yl]-1H-pyrrolo [2,3-b]pyridin-5-yl}-phenylamine] |
| 4.90 to 6.00 | > 6.70 | COc1cnc2[nH]cc(-c3oncc3-c3cccc(F)c3F)c2c1 [Compound 38, 3-[4-(2,3-Difluoro-phenyl)-isoxazol-5-yl]-5-methoxy-1H-pyrrolo[2,3-b]pyridine] |
| 4.90 to 6.00 | > 6.70 | CN(C)Cc1ccnc(-c2cnc3[nH]cc(-c4oncc4-c4cccc(F)c4F)c3c2)c1 [Compound 82, (2-{3-[4-(2,3-Difluoro-phenyl)-isoxazol-5-yl]-1H-pyrrolo[2,3-b]pyridin-5-yl}-pyridin-4-ylmethyl)-dimethyl-amine] |
| 6.00 to 6.70 | > 6.70 | Fc1cccc(-c2cnoc2-c2c[nH]c3ncc(-c4ccc(N5CCNCC5)cc4)cc23)c1F [Compound 68, 3-[4-(2,3-Difluoro-phenyl)-isoxazol-5-yl]-5-(4-piperazin-1-yl-phenyl)-1H-pyrrolo[2,3-b]pyridine] |
| 4.90 to 6.00 | > 6.70 | CN(C)Cc1ccc(-c2cnc3[nH]cc(-c4oncc4-c4cccc(F)c4F)c3c2)cc1 [Compound 91, (4-{3-[4-(2,3-Difluoro-phenyl)-isoxazol-5-yl]-1H-pyrrolo[2,3-b]pyridin-5-yl}-benzyl)-dimethyl-amine] |
| 4.90 to 6.00 | 6.00 to 6.70 | CN(C)c1cccc(-c2cnc3[nH]cc(-c4oncc4-c4cccc(F)c4F)c3c2)c1 [Compound 61, (3-{3-[4-(2,3-Difluoro-phenyl)-isoxazol-5-yl]-1H-pyrrolo[2,3-b]pyridin-5-yl}-phenyl)-dimethyl-amine] |
| 4.90 to 6.00 | > 6.70 | CS(=O)(=O)Nc1ccc(-c2cnc3[nH]cc(-c4oncc4-c4cccc(F)c4F)c3c2)cc1 [Compound 98, N-(4-{3-[4-(2,3-Difluoro-phenyl)-isoxazol-5-yl]-1H-pyrrolo[2,3-b]pyridin-5-yl}-phenyl)-methane sulfonamide] |
| 6.00 to 6.70 | > 6.70 | Fc1cccc(-c2cnoc2-c2c[nH]c3ncc(-c4cnc5[nH]ccc5c4)cc23)c1F [Compound 77, 3-[4-(2,3-Difluoro-phenyl)-isoxazol-5-yl]-1H,1′H-[5,5′]bi[pyrrolo[2,3-b]pyridinyl]] |
| 4.90 to 6.00 | > 6.70 | CC(=O)Nc1cccc(-c2cnc3[nH]cc(-c4oncc4-c4cccc(F)c4F)c3c2)c1 [Compound 65, N-(3-{3-[4-(2,3-Difluoro-phenyl)-isoxazol-5-yl]-1H-pyrrolo[2,3-b]pyridin-5-yl}-phenyl)-acetamide] |
| 4.90 to 6.00 | > 6.70 | CN(C)Cc1ccc(-c2cnc3[nH]cc(-c4oncc4-c4cccc(F)c4F)c3c2)nc1 [Compound 84, (6-{3-[4-(2,3-Difluoro-phenyl)-isoxazol-5-yl]-1H-pyrrolo[2,3-b]pyridin-5-yl}-pyridin-3-ylmethyl)-dimethyl-amine] |
| 6.00 to 6.70 | 6.00 to 6.70 | Oc1cnc2[nH]cc(-c3oncc3-c3cccc(F)c3F)c2c1 [Compound 43, 3-[4-(2,3-Difluoro-phenyl)-isoxazol-5-yl]-1H-pyrrolo[2,3-b]pyridin-5-ol] |
| 4.90 to 6.00 | 4.90 to 6.00 | Fc1c(Cl)cccc1-c1cnoc1-c1c[nH]c2ncccc12 [Compound 42, 3-[4-(3-Chloro-2-fluoro-phenyl)-isoxazol-5-yl]-1H-pyrrolo[2,3-b]pyridine] |
| 4.90 to 6.00 | > 6.70 | Cc1noc(-c2c[nH]c3ncccc23)c1-c1cccc(F)c1F [Compound 134, 3-[4-(2,3-Difluoro-phenyl)-3-methyl-isoxazol-5-yl]-1H-pyrrolo[2,3-b]pyridine] |
| 4.90 to 6.00 | > 6.70 | CN1CCN(c2ccc(-c3cnc4[nH]cc(-c5oncc5-c5cccc(F)c5F)c4c3)cn2)CC1 [Compound 71, 3-[4-(2,3-Difluoro-phenyl)-isoxazol-5-yl]-5-[6-(4-methyl-piperazin-1-yl)-pyridin-3-yl]-1H-pyrrolo[2,3-b]pyridine] |
| 6.00 to 6.70 | 6.00 to 6.70 | Fc1cccc(-c2cnoc2-c2c[nH]c3ncccc23)c1F [Compound 1, 3-[4-(2,3-Difluoro-phenyl)-isoxazol-5-yl]-1H-pyrrolo[2,3-b]pyridine] |
| 6.00 to 6.70 | – | Cc1noc(-c2c[nH]c3ncc(-c4ccc(N5CCN(C)CC5)cc4)cc23)c1-c1cccc(F)c1F [Compound 135, 3-[4-(2,3-Difluoro-phenyl)-3-methyl-isoxazol-5-yl]-5-[4-(4-methyl-piperazin-1-yl)-phenyl]-1H-pyrrolo[2,3-b]pyridine] |
| 4.90 to 6.00 | 6.00 to 6.70 | CN(C)c1ccc(-c2cnc3[nH]cc(-c4nncn4-c4cccc(F)c4F)c3c2)cc1 [Compound 106, (4-{3-[4-(2,3-Difluoro-phenyl)-4H-[1,2,4]triazol-3-yl]-1H-pyrrolo[2,3-b]pyridin-5-yl}-phenyl)-dimethyl-amine] |
| 4.90 to 6.00 | > 6.70 | Fc1cccc(-c2cnoc2-c2c[nH]c3ncc(-c4ccc(CN5CCCC5)cc4)cc23)c1F [Compound 93, 3-[4-(2,3-Difluoro-phenyl)-isoxazol-5-yl]-5-(4-pyrrolidin-1-ylmethyl-phenyl)-1H-pyrrolo[2,3-b]pyridine] |
| 4.90 to 6.00 | > 6.70 | Fc1cccc(-c2cnoc2-c2c[nH]c3ncc(/C=C/n4cncn4)cc23)c1F [Compound 133, 3-[4-(2,3-Difluoro-phenyl)-isoxazol-5-yl]-5-(2-[1,2,4]triazol-1-yl-vinyl)-1H-pyrrolo[2,3-b]pyridine] |
| 6.00 to 6.70 | > 6.70 | Clc1cccc(-c2cnoc2-c2c[nH]c3ncc(-c4cccnc4)cc23)c1Cl [Compound 99, 3-[4-(2,3-Dichloro-phenyl)-isoxazol-5-yl]-5-pyridin-3-yl-1H-pyrrolo[2,3-b]pyridine] |
